According to ChEMBL document CHEMBL3804797, “Discovery of Aryl Sulfonamides as Isoform-Selective Inhibitors of NaV1.7 with Efficacy in Rodent Pain Models” (ACS Med Chem Lett, 2016):
pIC50: −log10 of the molar value.

Legend:
[1] = molecular target: hERG (KCNH2) (Homo sapiens, UniProt Q12809); test: Displacement of [3H] astemizole from human ERG channel at 5 uM; conditions: probe [3H] astemizole
[2] = molecular target: Sodium channel protein type 5 subunit alpha (Homo sapiens, UniProt Q14524); test: Inhibition of full length human Nav1.5 channel expressed in HEK cells co-expressing human sodium channel subunit beta1 at holding potential -60 mV by automated voltage clamp analysis; format: cell-based, HEK293
Sequence of Sodium channel protein type 5 subunit alpha (Q14524 whole entry): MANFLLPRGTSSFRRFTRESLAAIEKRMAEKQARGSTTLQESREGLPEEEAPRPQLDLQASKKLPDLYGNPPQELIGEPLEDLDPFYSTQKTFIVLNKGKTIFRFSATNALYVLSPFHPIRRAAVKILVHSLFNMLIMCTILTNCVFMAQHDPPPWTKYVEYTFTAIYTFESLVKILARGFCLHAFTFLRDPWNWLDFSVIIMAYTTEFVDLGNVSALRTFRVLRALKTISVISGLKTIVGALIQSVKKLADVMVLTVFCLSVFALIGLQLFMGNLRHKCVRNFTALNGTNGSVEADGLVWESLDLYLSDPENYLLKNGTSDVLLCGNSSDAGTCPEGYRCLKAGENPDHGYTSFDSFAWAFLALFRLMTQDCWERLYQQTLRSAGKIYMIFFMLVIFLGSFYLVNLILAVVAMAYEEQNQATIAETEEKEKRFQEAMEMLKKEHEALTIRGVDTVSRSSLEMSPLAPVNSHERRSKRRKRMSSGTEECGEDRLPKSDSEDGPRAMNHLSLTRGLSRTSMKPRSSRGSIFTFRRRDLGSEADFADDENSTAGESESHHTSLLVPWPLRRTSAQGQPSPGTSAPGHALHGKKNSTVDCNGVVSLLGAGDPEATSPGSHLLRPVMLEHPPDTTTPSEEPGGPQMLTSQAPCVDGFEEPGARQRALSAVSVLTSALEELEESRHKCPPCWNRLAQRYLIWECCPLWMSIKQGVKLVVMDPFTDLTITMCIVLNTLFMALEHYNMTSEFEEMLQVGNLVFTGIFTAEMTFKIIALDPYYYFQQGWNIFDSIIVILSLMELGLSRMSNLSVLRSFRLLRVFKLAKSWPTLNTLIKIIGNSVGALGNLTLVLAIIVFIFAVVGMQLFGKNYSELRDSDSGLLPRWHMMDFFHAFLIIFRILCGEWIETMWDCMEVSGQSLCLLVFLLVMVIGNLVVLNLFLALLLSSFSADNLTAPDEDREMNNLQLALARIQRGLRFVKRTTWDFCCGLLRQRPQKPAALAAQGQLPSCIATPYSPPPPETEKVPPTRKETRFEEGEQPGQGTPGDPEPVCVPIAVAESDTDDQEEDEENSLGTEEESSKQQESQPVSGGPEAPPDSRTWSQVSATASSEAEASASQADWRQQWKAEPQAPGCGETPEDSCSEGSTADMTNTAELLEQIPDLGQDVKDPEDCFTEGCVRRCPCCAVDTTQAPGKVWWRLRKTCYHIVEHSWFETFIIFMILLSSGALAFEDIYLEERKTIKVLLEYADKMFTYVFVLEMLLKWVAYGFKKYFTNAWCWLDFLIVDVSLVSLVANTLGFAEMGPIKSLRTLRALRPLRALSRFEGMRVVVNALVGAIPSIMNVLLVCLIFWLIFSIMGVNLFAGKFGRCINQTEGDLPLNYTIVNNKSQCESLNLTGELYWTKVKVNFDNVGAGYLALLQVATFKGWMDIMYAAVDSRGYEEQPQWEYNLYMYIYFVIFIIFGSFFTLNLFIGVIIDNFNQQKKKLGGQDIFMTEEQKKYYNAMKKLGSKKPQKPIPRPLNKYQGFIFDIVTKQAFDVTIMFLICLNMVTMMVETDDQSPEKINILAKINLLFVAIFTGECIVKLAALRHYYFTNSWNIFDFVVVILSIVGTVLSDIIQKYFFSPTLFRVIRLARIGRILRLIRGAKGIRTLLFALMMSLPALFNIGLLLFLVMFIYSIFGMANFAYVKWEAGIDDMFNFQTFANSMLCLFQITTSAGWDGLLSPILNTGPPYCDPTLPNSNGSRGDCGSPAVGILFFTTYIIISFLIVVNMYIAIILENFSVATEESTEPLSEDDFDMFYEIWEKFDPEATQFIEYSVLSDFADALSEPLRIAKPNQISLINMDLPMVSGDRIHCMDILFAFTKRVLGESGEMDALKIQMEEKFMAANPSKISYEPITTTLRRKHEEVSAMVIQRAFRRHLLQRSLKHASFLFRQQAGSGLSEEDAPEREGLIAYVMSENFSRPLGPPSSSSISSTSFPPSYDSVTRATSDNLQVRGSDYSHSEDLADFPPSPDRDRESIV

[3] = molecular target: Cytochrome P450 2C9 (Homo sapiens, UniProt P11712); test: Inhibition of CYP2C9 in human liver microsomes using warfarin as substrate after 30 mins by LC/MS/MS analysis; format: ADME
Sequence of Cytochrome P450 2C9 (P11712 whole entry): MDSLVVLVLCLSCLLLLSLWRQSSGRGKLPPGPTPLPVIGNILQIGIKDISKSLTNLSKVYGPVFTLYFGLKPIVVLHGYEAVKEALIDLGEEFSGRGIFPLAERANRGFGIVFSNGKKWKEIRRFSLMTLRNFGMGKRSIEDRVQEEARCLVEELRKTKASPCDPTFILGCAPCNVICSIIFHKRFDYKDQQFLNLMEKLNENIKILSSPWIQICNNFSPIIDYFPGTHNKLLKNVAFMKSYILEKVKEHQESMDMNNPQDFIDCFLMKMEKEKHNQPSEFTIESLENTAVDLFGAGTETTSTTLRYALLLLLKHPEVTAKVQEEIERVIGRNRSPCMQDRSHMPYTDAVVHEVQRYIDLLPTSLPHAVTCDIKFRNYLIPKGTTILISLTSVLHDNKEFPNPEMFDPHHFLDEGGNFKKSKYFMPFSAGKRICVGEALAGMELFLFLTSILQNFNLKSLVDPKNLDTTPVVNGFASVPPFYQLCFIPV

[4] = molecular target: Cytochrome P450 3A4 (Homo sapiens, UniProt P08684); test: Inhibition of CYP3A4 in human liver microsomes using testosterone/midazolam as substrate after 30 mins by LC/MS/MS analysis; format: ADME
[5] = molecular target: T1, Cytochrome P450 1A2 (Homo sapiens, UniProt P05177); test: Inhibition of CYP1A2 in human liver microsomes using phenacetin as substrate after 30 mins by LC/MS/MS analysis; format: ADME
T1 sequence (P05177 whole entry): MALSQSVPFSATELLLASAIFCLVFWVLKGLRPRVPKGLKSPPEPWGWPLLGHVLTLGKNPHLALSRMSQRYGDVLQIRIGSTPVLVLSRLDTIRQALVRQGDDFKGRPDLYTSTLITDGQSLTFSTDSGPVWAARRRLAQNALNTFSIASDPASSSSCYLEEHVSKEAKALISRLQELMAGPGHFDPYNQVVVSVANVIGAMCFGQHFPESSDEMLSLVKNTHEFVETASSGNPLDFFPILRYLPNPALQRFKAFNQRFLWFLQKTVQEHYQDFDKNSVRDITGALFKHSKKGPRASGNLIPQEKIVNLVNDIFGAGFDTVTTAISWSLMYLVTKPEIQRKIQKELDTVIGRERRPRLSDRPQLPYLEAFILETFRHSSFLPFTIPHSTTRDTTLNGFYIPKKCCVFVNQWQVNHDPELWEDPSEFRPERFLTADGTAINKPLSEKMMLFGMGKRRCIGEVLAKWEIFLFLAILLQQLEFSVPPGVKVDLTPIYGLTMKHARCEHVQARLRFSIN

[6] = molecular target: Cytochrome P450 2D6 (Homo sapiens, UniProt P10635); test: Inhibition of CYP2D6 in human liver microsomes using dextromethorphan as substrate after 30 mins by LC/MS/MS analysis; format: ADME
Sequence of Cytochrome P450 2D6 (P10635 whole entry): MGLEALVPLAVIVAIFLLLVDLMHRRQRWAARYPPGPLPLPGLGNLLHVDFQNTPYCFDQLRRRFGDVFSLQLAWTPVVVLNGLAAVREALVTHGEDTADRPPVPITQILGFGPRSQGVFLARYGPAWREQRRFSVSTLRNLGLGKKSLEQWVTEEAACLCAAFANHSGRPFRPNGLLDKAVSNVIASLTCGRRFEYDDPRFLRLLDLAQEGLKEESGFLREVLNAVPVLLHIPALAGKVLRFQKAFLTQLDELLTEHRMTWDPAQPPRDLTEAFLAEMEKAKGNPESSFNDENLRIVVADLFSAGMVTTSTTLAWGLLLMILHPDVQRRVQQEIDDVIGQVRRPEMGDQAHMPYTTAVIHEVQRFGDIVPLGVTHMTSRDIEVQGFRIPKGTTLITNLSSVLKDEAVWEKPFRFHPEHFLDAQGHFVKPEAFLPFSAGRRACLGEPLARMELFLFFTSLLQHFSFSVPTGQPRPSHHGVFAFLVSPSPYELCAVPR

[7] = molecular target: Cytochrome P450 2C19 (Homo sapiens, UniProt P33261); test: Inhibition of CYP2C19 in human liver microsomes using mephenytoin as substrate after 30 mins by LC/MS/MS analysis; format: ADME
Sequence of Cytochrome P450 2C19 (P33261 whole entry): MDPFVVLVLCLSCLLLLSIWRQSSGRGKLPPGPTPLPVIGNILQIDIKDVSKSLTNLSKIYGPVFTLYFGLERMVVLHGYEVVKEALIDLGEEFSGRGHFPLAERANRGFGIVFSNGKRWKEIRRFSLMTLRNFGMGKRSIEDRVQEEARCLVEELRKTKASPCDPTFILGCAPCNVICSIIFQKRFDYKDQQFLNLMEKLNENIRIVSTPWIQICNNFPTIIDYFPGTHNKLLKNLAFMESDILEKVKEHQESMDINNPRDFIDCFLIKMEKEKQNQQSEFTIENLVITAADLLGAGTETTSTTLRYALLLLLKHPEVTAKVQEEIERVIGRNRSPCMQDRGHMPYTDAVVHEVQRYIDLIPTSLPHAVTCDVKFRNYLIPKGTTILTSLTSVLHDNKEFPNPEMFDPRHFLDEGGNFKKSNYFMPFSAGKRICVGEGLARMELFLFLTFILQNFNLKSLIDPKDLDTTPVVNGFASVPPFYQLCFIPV

[8] = system: Rattus norvegicus; test: Analgesic activity in rat assessed as reduction in formalin-induced late phase pain response at 100 mg/kg, ip dosed 2 hrs prior to formalin challenge measured over 10 to 40 mins by automated nociception analysis relative to formalin; format: functional; design: scale not given: the % may be the effect or the level left
[9] = system: Rattus norvegicus; test: Analgesic activity in rat assessed as inhibition of aconitine-induced pain response at 100 mg/kg, ip dosed 2 hrs prior to aconitine challenge measured over 60 mins by automated nociception analysis relative to aconitine; format: functional; design: scale not given: the % may be the effect or the level left
[10] = system: Rattus norvegicus; test: Analgesic activity in formalin-induced rat pain model assessed as free plasma concentration required to show efficacy at 30 to 100 mg/kg, ip dosed 2 hrs prior to aconitine challenge measured over 60 mins by automated nociception analysis; format: functional
[11] = system: Rattus norvegicus; test: Analgesic activity in aconitine-induced rat pain model assessed as free plasma concentration required to show efficacy at 30 to 100 mg/kg, ip dosed 2 hrs prior to aconitine challenge measured over 60 mins by automated nociception analysis; format: functional
[12] = system: Mus musculus; test: Analgesic activity in mouse assessed as reduction in CFA-induced cold allodynia at 30 mg/kg, ip administered 1 hr prior to acetone challenge on day 2 post CFA injection measured for 120 secs relative to vehicle control; format: functional; design: scale not given: the % may be the effect or the level left
[13] = system: Mus musculus; test: Analgesic activity in mouse assessed as reduction in CFA-induced cold allodynia at 100 mg/kg, ip administered 1 hr prior to acetone challenge on day 2 post CFA injection measured for 120 secs relative to vehicle control; format: functional; design: scale not given: the % may be the effect or the level left
[14] = molecular target: Sodium channel protein type 9 subunit alpha (Homo sapiens, UniProt Q15858); test: Inhibition of full length human Nav1.7 channel expressed in HEK cells co-expressing human sodium channel subunit beta1 at holding potential -60 mV by automated voltage clamp analysis; format: cell-based, HEK293

Sequence of hERG (KCNH2) (Q12809 whole entry): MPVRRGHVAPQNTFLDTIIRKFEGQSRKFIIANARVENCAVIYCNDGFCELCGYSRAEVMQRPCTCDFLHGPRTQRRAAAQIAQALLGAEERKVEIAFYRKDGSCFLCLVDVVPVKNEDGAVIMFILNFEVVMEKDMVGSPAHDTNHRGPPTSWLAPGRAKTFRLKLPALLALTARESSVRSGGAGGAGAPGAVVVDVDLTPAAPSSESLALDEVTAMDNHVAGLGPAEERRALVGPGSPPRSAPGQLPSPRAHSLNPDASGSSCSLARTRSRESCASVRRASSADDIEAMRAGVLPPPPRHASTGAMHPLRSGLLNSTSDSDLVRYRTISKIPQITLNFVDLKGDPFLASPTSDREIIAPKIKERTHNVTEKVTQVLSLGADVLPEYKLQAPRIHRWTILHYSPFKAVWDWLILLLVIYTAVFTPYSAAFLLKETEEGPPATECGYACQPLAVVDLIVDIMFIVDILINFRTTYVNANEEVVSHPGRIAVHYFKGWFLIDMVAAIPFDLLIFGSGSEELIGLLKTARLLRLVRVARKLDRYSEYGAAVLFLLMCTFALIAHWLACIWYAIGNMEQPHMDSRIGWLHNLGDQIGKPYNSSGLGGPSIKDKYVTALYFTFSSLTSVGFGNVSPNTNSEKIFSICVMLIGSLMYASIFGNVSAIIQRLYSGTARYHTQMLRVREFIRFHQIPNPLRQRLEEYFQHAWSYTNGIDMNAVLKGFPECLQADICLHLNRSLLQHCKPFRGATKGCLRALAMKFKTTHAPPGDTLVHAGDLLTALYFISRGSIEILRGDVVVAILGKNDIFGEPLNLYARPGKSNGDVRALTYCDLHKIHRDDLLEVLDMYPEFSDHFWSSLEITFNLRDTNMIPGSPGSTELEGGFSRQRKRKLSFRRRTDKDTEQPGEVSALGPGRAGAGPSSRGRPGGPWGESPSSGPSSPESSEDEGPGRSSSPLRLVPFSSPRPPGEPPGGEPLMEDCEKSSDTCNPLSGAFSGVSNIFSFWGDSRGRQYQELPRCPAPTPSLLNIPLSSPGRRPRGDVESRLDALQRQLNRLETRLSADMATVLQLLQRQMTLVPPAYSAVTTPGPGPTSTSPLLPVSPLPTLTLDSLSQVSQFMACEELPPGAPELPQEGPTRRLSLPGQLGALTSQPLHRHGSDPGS

Structure (SMILES)	inhibition at 5 µM [1]	pIC50 [2]	also measured
Nc1noc2ccc(-c3cc(F)ccc3Oc3cc(F)c(S(=O)(=O)Nc4ncns4)cc3F)cc12	< 11%	–	–
O=c1[nH]c2ccc(-c3cc(Cl)ccc3Oc3cc(F)c(S(=O)(=O)Nc4ncns4)cc3F)cc2[nH]1	< 11%	< 5.00	–
CNc1noc2ccc(-c3cc(Cl)ccc3Oc3cc(F)c(S(=O)(=O)Nc4ncns4)cc3F)cc12	< 11%	6.64	–
Nc1noc2ccc(-c3cc(Cl)ccc3Oc3cc(F)c(S(=O)(=O)Nc4ncccn4)cc3F)cc12	< 11%	–	pIC50 [3]: 6.24; pIC50 [4]: < 5.00; pIC50 [5]: < 5.00; pIC50 [6]: < 5.00; pIC50 [7]: < 5.00
Nc1n[nH]c2ccc(-c3cc(Cl)ccc3Oc3cc(F)c(S(=O)(=O)Nc4ncns4)cc3F)cc12	< 11%	< 5.00	–
O=S(=O)(Nc1ncns1)c1cc(F)c(Oc2ccc(Cl)cc2-c2ccc3[nH]cnc3c2)cc1F	< 11%	< 5.00	–
O=S(=O)(Nc1ncns1)c1cc(F)c(Oc2ccc(Cl)cc2-c2ncc3cnccn23)cc1F	< 11%	–	–
Nc1noc2ccc(-c3cccnc3Oc3cc(F)c(S(=O)(=O)Nc4ncns4)cc3F)cc12	< 11%	–	–
Nc1noc2ccc(-c3cc(Cl)ccc3Oc3cc(F)c(S(=O)(=O)[N-]c4ncns4)cc3F)cc12.[Na+]	–	–	Activity [8]: 60%; Activity [9]: 43%; Cp(f) [10]: 250 nM; Cp(f) [11]: 250 nM; Activity [12]: 59%; Activity [13]: 83%
O=S(=O)(Nc1ncns1)c1cc(F)c(Oc2ccc(Cl)cc2-c2cccc3nccn23)cc1F	< 11%	< 5.00	pIC50 [14]: 7.77
